# Experimental data taken from patent US6979447B2, “Immunomodulation and effect on cell processes relating to serotonin family receptors” (Philadelphia Health and Education Corporation, priority 2001, dated 2005).
# What was measured:
# [1] = test system: murine lymphocytes; assay: Murine mixed lymphocyte reaction (BALB/c vs. C57BL6); type: cell-based, mouse; conditions: BALB/c vs. C57BL6, FIG. 10
# Procedure: MLRs were performed essentially as described in Current Protocols in Immunology (1999, Section 3.12.6-3.12.7). That is, the primary spleen cells obtained from C57/B6J mice were used as stimulators. They were purified as described in Current Protocols in Immunology (1999, Section 3.1.5), and were irradiated (35 Gy) at the Hahnemann Hospital (Philadelphia, Pa.) blood bank facility. Primary spleen cells obtained from BALB/c/BYJ were depleted from the adherent cells using a nylon wool column, and were used as responders.
# The various inhibitors were pre-plated onto 96 well, U-bottom plates and all experimental conditions were assayed at least in triplicate. 100,000 C57/B6 cells in RPMI medium, supplemented with 10% FBS, were plated into each well. 200,000 of BALB/c/BYJ cells were plated over the stimulator cells, to a final volume of 200 μl/well. Background controls received either no BALB/c cells, or no C57/B6 cells. One micro Ci of tritiated thymidine was added to each well after 4 days, and the plates were harvested 12 hours later.
# [2] = test system: human lymphocytes; assay: Human mitogenic (ConA) stimulation, 3H-thymidine incorporation; type: cell-based; conditions: for effect on activation / proliferative response: ConA 5 μg/ml, FIGS. 7A, 8A, 9A
# Procedure: Blood from healthy volunteers was drawn using venipuncture, using Vacutainer collection sets and heparinized collection vials. The blood was diluted 1:1 using HBSS to a total volume of 30 ml in 50 ml conical tubes (Fisher Scientific, Co., Pittsburgh, Pa.). […] Cells from the buffy coats were collected and the residual Histopaque was washed away using repeated centrifugations in HBSS. After washes, cells were resuspended at 5 million cells per ml in RPMI, supplemented with 2% FBS. To remove adherent cells, the suspension was plated onto a 6 well flat-bottom plate (Corning Costar), 3 ml/well, and incubated for 2 hours at 37° C., 5% CO2. Non-adherent cells were harvested after this incubation, were counted and resuspended in RPMI supplemented with 10% human serum (Sigma).
# All drugs were pre-plated before the cell suspension was added onto each well of a 96-well round-bottom plate. All experimental conditions were assayed in at least triplicate. Cells suspended in RPMI supplemented with 10% human serum were plated at 100,000 cells per well to a final volume of 200 μl. […] Control samples received no ConA stimulation. The plates were incubated at 37° C. and 5% CO2. One microCurie of tritiated thymidine was added to each well after 60 hours, and the plates were harvested 12 hours later.
# [3] = test system: RPMI-8226 cells; assay: Hematoxylin-eosin / bis-benzamide staining of RPMI-8226 cytospins; type: cell-based, human
# Procedure: 2.0×10^5 RPMI-8226 cells were cultured, in 6-well culture plates, in the presence of the indicated drug concentrations, in a total of 5 mL RPMI-1640 supplemented with 10% FBS. Each well was harvested in its entirety and divided into two identical samples for cytospins.
# 1.0×10^5 RPMI-8226 cells from each treatment group were loaded into Cyto-funnels and centrifuged at 500 rpm for 4 minutes with medium acceleration. Slides were then fixed through graded methanol in PBS (100%, 5 minutes; 80%, 5 minutes; 50%, 5 minutes), washed for 5 minutes in PBS and stored in PBS at 4° C. until stained.
# Cytospun slides were stained with Hematoxylin and Eosin, followed by the nuclear stain, bis-benzamide, rinsed and mounted according to standard staining protocols. Slides were visualized under both brightfield and fluorescent light to generate matched images of the same slide field (see, e.g., FIGS. 28 and 29).
# [4] = test system: RPMI 8226 multiple myeloma cells; assay: RPMI 8226 cell proliferation / viability (trypan blue, MTT, 3H-thymidine); type: cell-based, human; conditions: low dose-titration, FIGS. 23, 24 and 25
# Procedure: The human plasmacytoma (multiple myeloma) cell line, RPMI 8226 (American Type Culture Collection, Manassas, Va.), was cultured in RPMI 1640 supplemented with 10 mM HEPES, 1 mM sodium pyruvate, 4.5 g/L glucose, 1.5 g/L bicarbonate and 20% FBS (non-heat inactivated).
# Cell proliferation was assayed by three methods—Trypan Blue Exclusion was used to quantify the number of viable cells in culture; 3-(4,5-dimethylthiazol-2-yl)-2,5-diphenyl tetrazolium bromide (MTT) reduction was used to assay mitochondrial activity (and thus cell viability); and ^3H-Thymidine uptake was employed to assay for active DNA synthesis.
# The following 5-HT receptor modulating compounds were tested for their effects on RPMI 8226 cells in vitro cultured at the described densities and across the indicated concentration ranges.
# [5] = test system: human lymphocytes; assay: Human mixed lymphocyte reaction (allogeneic stimulation); type: cell-based; conditions: allogeneic stimulation, harvested 120 hours, FIGS. 7B, 8B, 9B
# Excerpt: Blood from two healthy, non-related, donors was taken as described above. Peripheral blood mononuclear cells were isolated as described previously elsewhere. The adherent cells were separated from the suspension cells as described previously for both donors. Suspension cells from both donors (donors A and B) were used as responders. The remaining adherent cells from each of the donors were used as stimulators against a different donor (suspension A against adherent B and adherent A against suspension B). The stimulator cells were irradiated at 35 Gy. Drugs were pre-plated onto 96 well, U-bottom plates in triplicate. 200,000 “stimulator” cells in RPMI supplemented with 10% human serum were then plated in each well. 200,000 “responder” cells in the same medium were then plated over stimulators to a final volume of 200 μl/well. Background controls received either no stimulator cells, or no responder cells. The plates were incubated at 37° C. and 5% CO2. 1 μCi of tritiated thymidine was added to each well after 4.5 days, and the plates were harvested 12 hours later.
# [6] = test system: T cells; assay: Macrophage media-conditioning study, T cell proliferation in conditioned media; type: cell-based, mouse; conditions: added to conditioned media, FIG. 1
# Excerpt: Femur and tibia bones were harvested from the hind limbs of 6-8 week old C57/B6J mice (Jackson Laboratories, Bar Harbor, Me.). The distal ends of the bones were removed, exposing the marrow plugs. Using a 22 gauge needle (Becton-Dickinson, Lincoln Park, N.J.), the marrow cavities were flushed with RPMI medium supplemented 2% FBS. The cell suspension was then passed through a nylon mesh to remove stromal cells. Red blood cells were lysed using ACK (ammonium chloride potassium lysis buffer; 0.15 M NH4Cl, 10 mM KHCO3, 0.1 mM EDTA) buffer as described in Current Protocols in Immunology (Section 3.1.5).
# Cells were resuspended at 10^7 cells/ml in RPMI medium, containing 10% FBS, 500 units/ml of murine M-CSF, and 3 ml/well of cell suspension were plated onto a 6 well flat-bottom plate. […] Cells were grown for 4 days. Spleens of 6-8 week old BALB/c/BYJ were harvested, and single cell suspension was made. Red blood cells were removed as described above. Adherent cells were removed by 1.5 hour incubation on a nylon wool column, and suspension cells were collected. The BALB/c cells were then plated over the C57/B6 cells (see supra), at 1.2×10^6 cells/well, in 0.65 ml (bringing brought the final volume of each well to 1.3 ml). The cells were grown for 2.5 days. When appropriate, fluoxetine or BCH were added at the beginning of this incubation. The medium from the mixed cell cultures was harvested, centrifuged at 1200 RPM to remove cells, and filtered using a 0.22 microns syringe filter (Corning). This filtered medium was used to support another round of cell proliferation.
compound,measurement,setting,value
5-methyl hydroxytryptamine,effect on outcome of murine MLR,[1],slight enhancement
CNc1cc(NS(=O)(=O)c2ccc(N)cc2)nc(NC)n1 [Ro 04-679],effect on outcome of murine MLR,[1],no effects on the outcome of the assay
Cc1cc2c(cc1Cl)N(C(=O)Nc1ccc(Oc3cccnc3C)nc1)CC2 [SB 242084],inhibitory profile when dosed at time=0 or time=48 hours,"[2]; ConA 1 μg/ml, harvested 72 hours, FIG. 12",retained the complete inhibitory profile
same,effect on activation / proliferative response,[2]; harvested 72 hours,inhibit the activation response at pharmacologically relevant concentrations
same,chromatin / nuclear morphology,"[3]; 50 μM, 9 hour treatment, FIGS. 28, 29",condensed and fragmented chromatin
same,induction of programmed cell death,[3]; FIGS. 28 and 29,"induced programmed cell death comparable to that induced by the topoisomerase I inhibitor, camptothecin"
same,effect on growth of RPMI-8226 cells,[4],strong inhibition of growth
same,effect on activation / proliferative response,[5],inhibit the activation response at pharmacologically relevant concentrations
CSc1ccc2c(c1)C(N1CCN(C)CC1)Cc1ccccc1S2 (centres unmarked) [methiothepin],effect on activation / proliferative response,[2]; harvested 72 hours,inhibit the activation response at pharmacologically relevant concentrations
same,effect on growth of RPMI-8226 cells,[4],strong inhibition of growth
same,effect on activation / proliferative response,[5],inhibit the activation response at pharmacologically relevant concentrations
N[C@@H](Cc1c[nH]c2ccccc12)C(=O)O [tryptophan],relief of phenelzine-induced inhibition,"[2]; ConA 1 μg/ml, added to phenelzine-inhibited cells, 100 μM each, FIG. 6",had very little effect
same,effect on proliferative response,"[2]; ConA 1 μg/ml, reagent 100 μM, FIG. 6",enhanced the proliferative response
same,effect on proliferative response,"[2]; highest ConA dose, 10 μg/ml, harvest 72 hours, FIG. 5C",no enhancement at the highest level
same,effect on stimulation of ConA-stimulated human PBLs,"[2]; reagents at 400 μM, time course, FIG. 4",enhanced the maximal stimulation of the cells
same,effect on proliferative response,"[2]; weakest signal strength, 0.1 μg/ml ConA, harvest 72 hours, FIG. 5A",augments the proliferative response
same,restoration of T cell proliferation in conditioned media,[6],had no effect
